“And” between values parts separate entries of the source, which are not always exact repeats. Equal entries are not always repeated. One block for each compound: values may come before it.
Assays:
[1] = Plasma protein binding, human; format: in vitro ADME; conditions: for fraction unbound at 4 h, 5 μM: human, pH 7.4, human plasma, read-out: PPB % human (converted)
Experimental: (§1) Plasma protein binding was determined by equilibrium dialysis using the Pierce Red Device plate with inserts (ThermoScientific). Test compound at 5 μM (0.5% DMSO) spiked in freshly thawed human, rat, mouse, or dog plasma (Bioreclamation INC, Westbury, NY, USA) was dialyzed against phosphate-buffered saline (PBS, pH 7.4) at 37 °C under shaking for 4 h. Aliquots were taken from each side of the well, and matrix matched. Proteins were precipitated with an excess of acetonitrile, samples were mixed and centrifuged, and the supernatant was analyzed by liquid chromatography–mass spectrometry/mass spectrometry (LC–MS/MS). Addition of compound peak areas in the buffer chamber and the plasma chamber was considered to be 100% compound.

[2] = PK dog; format: in vivo; conditions: for CLu dog: unbound clearance; for clearance: read-out: CLp dog (converted); for Vd: read-out: Vss dog
Experimental: These studies were performed with non-naïve male Beagle dogs (age 13.8 months old, origin: Marshall US, North Rose, NY 14516, USA; age 15.8 months old, origin: Harlan; age 17.7 months old, origin: Harlan). Dogs (n = 3) were dosed iv via a 10 min infusion via a catheter with a dose level of 1 mg/kg. After a washout of 3 days, they were dosed orally as a single gavage with a dose level of 5 or 1 mg/kg in PEG400/MC 0.5% or MC 0.5%. Before administration by the po route, animals were fasted for a period of at least 12 h before treatment, and food was given just after the 3 h of blood sampling. All animals had free access to tap water. Blood samples were taken without an anesthetic from a jugular or cephalic vein into tubes containing lithium heparin as an anticoagulant. Blood samples were taken up to 24 h after the start of the infusion. After centrifugation, the resulting plasma samples were assayed by LC-MS/MS with a nongood laboratory practice (non-GLP)-validated method. PK parameters were calculated by noncompartmental analysis using WinNonlin software (Certara, Princeton, NJ, USA).

[3] = Plasma protein binding, rat; format: in vitro ADME; conditions: pH 7.4, read-out: PPB % rat (converted)
Experimental: as §1

[4] = Hepatocyte stability, human; format: in vitro ADME; conditions: for CLint scaled at 1 μM: read-out: Hep CLint,u human
Experimental: (§2) The hepatocyte stability assay was performed by incubation of test compound at 1 μM, 0.03% DMSO in modified Krebs–Henseleit buffer with suspension of pooled cryopreserved hepatocytes (BioIVT, Hicksville, NY, USA) from mouse, rat, dog, or human (BioIVT, Hicksville, NY, USA) at 0.5 million viable hepatocytes/mL. Before adding the hepatocytes (time zero) and after 10, 20, 45, 90, 120, and 180 min of incubation (n = 2) at 37 °C while gently shaking, the reaction was stopped and proteins were precipitated with an excess of acetonitrile containing an internal standard. The samples were mixed, centrifuged, and filtered, and the supernatant was analyzed by liquid chromatography–mass spectrometry/mass spectrometry (LC–MS/MS). The instrument responses (peak areas/IS peak areas) were referenced to the zero-time point samples (considered as 100%) in order to determine the percentage of compound remaining.

[5] = PK rat; format: in vivo; conditions: for CLu rat: unbound clearance; for clearance: read-out: CLp rat (converted); for Vd: read-out: Vss rat
Experimental: These studies were performed with naïve male Sprague–Dawley rats (Janvier France, 6–8 weeks old). Rats were dosed iv via a bolus in the tail vein with a dose level of 0.1 mg/kg or orally as a single esophageal gavage with a dose level of 5 mg/kg. For the iv route, the compound was formulated in PEG200/water (60/40; v/v). For the oral route, the compound was formulated in MC 0.5% (2/98) as a homogeneous suspension. Before the oral dosing, the animals were deprived of food for at least 12 h before compound administration until 3 h after administration. All animals had free access to the tap water. Blood samples were collected under light anesthesia and placed into tubes containing Li-heparin as an anticoagulant. Blood samples were collected up to 24 h after dosing (n = 3 rats per route). After centrifugation, the resulting plasma samples were assayed by LC-MS/MS with a nongood laboratory practice (non-GLP)-validated method. PK parameters were calculated by noncompartmental analysis using WinNonlin software (Certara, Princeton, NJ, USA).

[6] = Hepatocyte stability, rat; format: in vitro ADME; conditions: for CLint scaled at 1 μM: read-out: Hep CLint,u rat (converted)
Experimental: as §2

[7] = biological target: T1, ΔF508 CFTR (Homo sapiens, UniProt P13569, DEL508-508); assay: TECC (transepithelial clamp circuit) in primary CF-derived HBE cells; format: cell-based; conditions: for Emax / EC50: primary ΔF508 homozygous HBE cells, 24 h incubation, with GLPG2222; for Emax: read-out: TECC HBE with GLPG2222 % max activation; for EC50: read-out: TECC HBE with GLPG2222 EC50
T1 construct: host or cells: CFBE41o- TetON cells, expression induced with doxycycline
T1 sequence (P13569 with tags, fused parts or gaps DEL508-508): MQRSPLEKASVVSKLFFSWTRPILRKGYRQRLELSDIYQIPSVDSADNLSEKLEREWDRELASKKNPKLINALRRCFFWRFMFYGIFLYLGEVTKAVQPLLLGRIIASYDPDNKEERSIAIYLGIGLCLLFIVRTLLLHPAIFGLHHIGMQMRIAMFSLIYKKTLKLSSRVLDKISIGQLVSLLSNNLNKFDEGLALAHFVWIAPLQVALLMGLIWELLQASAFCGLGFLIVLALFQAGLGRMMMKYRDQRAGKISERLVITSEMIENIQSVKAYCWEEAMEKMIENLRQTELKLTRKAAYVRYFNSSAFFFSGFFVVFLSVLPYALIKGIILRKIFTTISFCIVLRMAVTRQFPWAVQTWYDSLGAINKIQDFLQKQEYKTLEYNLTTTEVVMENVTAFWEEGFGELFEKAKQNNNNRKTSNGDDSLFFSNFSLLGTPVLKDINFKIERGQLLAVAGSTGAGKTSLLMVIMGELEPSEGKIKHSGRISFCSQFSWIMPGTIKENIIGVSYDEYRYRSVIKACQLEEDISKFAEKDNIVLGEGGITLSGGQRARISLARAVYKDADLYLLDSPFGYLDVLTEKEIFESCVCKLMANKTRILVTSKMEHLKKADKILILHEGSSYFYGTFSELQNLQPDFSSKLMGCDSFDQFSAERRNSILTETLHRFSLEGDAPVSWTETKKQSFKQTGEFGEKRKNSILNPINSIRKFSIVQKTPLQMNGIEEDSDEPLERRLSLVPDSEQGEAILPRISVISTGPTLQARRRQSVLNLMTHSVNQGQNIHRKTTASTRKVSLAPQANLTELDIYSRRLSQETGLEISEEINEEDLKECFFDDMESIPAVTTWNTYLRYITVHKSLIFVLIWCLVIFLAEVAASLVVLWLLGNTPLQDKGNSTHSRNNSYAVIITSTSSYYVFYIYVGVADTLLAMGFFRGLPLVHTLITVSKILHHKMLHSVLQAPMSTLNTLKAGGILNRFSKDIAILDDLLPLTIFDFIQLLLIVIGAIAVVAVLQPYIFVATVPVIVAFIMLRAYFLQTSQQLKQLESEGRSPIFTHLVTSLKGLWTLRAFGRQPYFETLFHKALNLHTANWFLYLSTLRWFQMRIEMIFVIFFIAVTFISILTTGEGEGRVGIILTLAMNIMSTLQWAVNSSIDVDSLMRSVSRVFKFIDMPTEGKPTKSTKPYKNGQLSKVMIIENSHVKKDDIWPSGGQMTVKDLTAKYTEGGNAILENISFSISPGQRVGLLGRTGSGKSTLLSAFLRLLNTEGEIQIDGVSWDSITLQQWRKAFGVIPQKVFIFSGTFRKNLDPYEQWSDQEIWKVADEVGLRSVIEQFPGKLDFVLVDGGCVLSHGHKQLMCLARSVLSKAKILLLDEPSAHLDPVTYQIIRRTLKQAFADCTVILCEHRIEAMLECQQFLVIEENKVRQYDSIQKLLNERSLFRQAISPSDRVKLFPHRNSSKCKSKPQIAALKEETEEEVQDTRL
Experimental: Bronchial epithelial cells isolated from the lungs of patients with CF homozygous for the ΔF508 CFTR mutation were obtained from McGill University (Montreal, QC, Canada) or the University of North Carolina (Chapel Hill, NC, United States). Cells were isolated from lungs obtained from donors undergoing planned transplantation. These primary cells were cultured directly on type IV collagen-coated polycarbonate Transwell supports with a diameter of 6.5 mm and pore size of 0.4 μm (Costar, #3397) for 18–25 days in an air–liquid interface, essentially as previously described for TECC.[23]
Twenty-four hours prior to the electrophysiological recording, corrector and/or potentiator compounds were added on both the apical and basolateral sides. TECC recordings were performed by using the TECC instrument developed and sold by EP Design (Bertem, Belgium). During the recording, the epithelial cells were bathed in a NaCl-Ringer solution (120 mM NaCl, 20 mM HEPES, 1.2 mM CaCl2, 1.2 mM MgCl2, 0.8 mM KH2PO4, 0.8 mM K2HPO4, 5 mM glucose, pH 7.4) on both the basolateral (640 μL) and the apical (160 μL) sides and kept at 37 °C. Corrector and potentiator compounds were readded at the same concentration used during the 24 h pretreatment. Apical amiloride was used to inhibit the endogenous ENaC currents (100 μM), while forskolin (10 μM) was applied on both the apical and basolateral sides to stimulate CFTR. Measurements were done during a 20 min time frame with recordings every 2 min. The transepithelial potential and transepithelial resistance were measured in an open circuit and transformed to Ieq using Ohm’s law. The maximal increase in Ieq (ΔIeq, the difference in current before and after forskolin or potentiator treatment) was used as a measure for the increased CFTR activity. EC50 values were generated by measuring the impact of different concentrations of compounds on ΔIeq in primary cells. For this purpose, each transwell was treated with a different compound concentration. CFTRInh-172 was added apically at 10 μM to assess the specificity of the response. Dose response data was fitted using a 3-parameter hill function of the form Response = Bottom + (Top – Bottom)/(1 + (EC50/concentration)) to determine EC50 values. Percentage efficacy was calculated using the following formula: (max response – neg control)/(C1 response – neg control).

[8] = male, beagle, plasma, 1 mg/kg, iv
[9] = pooled cryopreserved hepatocytes in suspension
[10] = male, Sprague-Dawley, plasma, 0.1 mg/kg, iv
[11] = male, Sprague-Dawley, plasma, 0.1 mg/kg, iv, read-out: t1/2 iv rat (converted)
[12] = male, Sprague-Dawley, plasma, iv, 0.1 mg/kg, iv

- PPB % human ([1]; human plasma): 99% and 98.7%
- fraction unbound at 4 h, 5 μM ([1]; plasma): 0.02
- CLu dog ([2]; iv): 202 mL/min/kg
- half-life at 24 h ([2]; male, beagle, plasma, 0.1 mg/kg, iv, read-out: t1/2 iv dog (converted)): 4.9 h
- clearance [2, 8]: 2.67 mL/min/kg
- Vd [2, 8]: 0.9 L/kg
- fraction unbound at 4 h, 5 μM [3]: 0.015
- CLint scaled at 1 μM [4, 9]: < 11 mL/min/kg
- CLu rat ([5]; iv): 220 mL/min/kg
- clearance [5, 10]: 3.17 mL/min/kg
- half-life at 24 h [5, 11]: 3.6 h
- Vd [5, 12]: 0.81 L/kg
- CLint scaled at 1 μM [6, 9]: 49 mL/min/kg
- Emax [7]: 371%
- EC50 [7]: 67 nM
Structure (SMILES): CN(C)S(=O)(=O)NC(=O)c1cc(N2CCC(N3CCOCC3)CC2)c2c(C3CCC3)nn(-c3ccc(F)cc3)c2n1 [Compound 51]

- fraction unbound at 4 h, 5 μM ([1]; human plasma): 0.02
- F (%) dog ([2]; 5 mg/kg po): 59.5%
- CLu dog ([2]; iv): 178 mL/min/kg
- clearance [2, 8]: 3.5 mL/min/kg
- Vd [2, 8]: 1.37 L/kg
- half-life ([2]; male, beagle, plasma, 1 mg/kg, iv, read-out: t1/2 iv dog (converted)): 5.4 h
- fraction unbound at 4 h, 5 μM ([3]; rat): 0.016
- Hepatocyte stability: %LBF human ([4]; human hepatocytes): 22 %LBF
- Hepatocyte stability: predicted hepCl human ([4]; human hepatocytes, 1 µM): < 4.67 mL/min/kg
- CLint scaled at 1 μM ([4]; human hepatocytes): < 12.8 mL/min/kg
- F (%) rat ([5]; 30 mg/kg po): 69.1%
- exposure versus dose ([5]; dose of 5 to 300 mg/kg): dose proportional increase in exposure
- CLu rat ([5]; iv): 333 mL/min/kg
- clearance [5, 10]: 5.33 mL/min/kg
- half-life [5, 11]: 3.45 h
- Vd [5, 12]: 1.38 L/kg
- Hepatocyte stability: %LBF rat ([6]; rat hepatocytes): 30 %LBF
- Hepatocyte stability: predicted hepCl rat ([6]; rat hepatocytes, 1 µM): 25.5 mL/min/kg
- CLint scaled at 1 μM ([6]; rat hepatocytes): 66.2 mL/min/kg
- increase in F508del CFTR activity ([7]; addition to the combination of potentiator GLPG1837 and C1 corrector 4): 8 fold
- Emax [7]: 467%
- EC50 [7]: 47 nM
Structure (SMILES): COC1CCN(C2CCN(c3cc(C(=O)NS(=O)(=O)N(C)C)nc4c3c(C3CCC3)nn4-c3ccc(F)cc3)CC2)CC1 [Compound 52, 3-Cyclobutyl-N-(N,N-dimethylsulfamoyl)-1-(4-fluorophenyl)-4-(4-methoxy-[1,4′-bipiperidin]-1′-yl)-1H-pyrazolo[3,4-b]pyridine-6-carboxamide]

— PMC11017246, “Discovery of GLPG2737, a Potent Type 2 Corrector of CFTR for the Treatment of Cystic Fibrosis in Combination with a Potentiator and a Type 1 Co-corrector” (Journal of Medicinal Chemistry, 2024)
